From patent publication US20080293785A1, “SUBSTITUTED BENZOTHIAZOLE KINASE INHIBITORS” (priority 2006, published 2008)
Read-outs that look alike come from different tables or passages of the source.

Key:
CDK1:Cyclin-B = molecular target: T1, CDK1:Cyclin-B (Homo sapiens, UniProt P06493); assay: CDK1 Screening Assay; assay type: biochemical; conditions: 10 μM ATP, biotinylated histone-H1 peptide substrate, 33P-γ-ATP FlashPlate; read-out: Kinase IC50 CDK1
T1 construct: purchased New England Biolabs, Beverly, Mass; 6020; host or cells: insect cells
Method: (§1) A kinase reaction mixture was prepared containing 50 mM Tris.HCl pH=8, 10 mM MgCl2, 0.1 mM Na3PO4, 1 mM DTT, 10 μM ATP, 0.025 μM biotinylated histone-H1 peptide substrate and 0.2 μCuries per well ^33P-γ-ATP (2000-3000 Ci/mmol). 70 μL of the kinase reaction mixture was dispensed into the well of a streptavidin coated FlashPlate™ (Cat. # SMP103, NEN, Boston, Mass.). Then 1 μL of test compound stock in 100% DMSO was added to the wells resulting in a final concentration of 1% DMSO in the reaction well with a 100 μL final reaction well volume.
(§2) The CDK1:Cyclin-B protein was diluted in 50 mM Tris.HCl pH=8.0, 0.1% BSA at a concentration of 1 ng per μL and 30 μL (30 ng enzyme per test well) was added to each well to initiate the reaction. The reaction was incubated for one hour at 30° C. At the end of the one hour incubation, the reaction was terminated by aspirating the mixture from the plate and washing the wells twice with PBS containing 100 mM EDTA. The histone-H1 biotinylated peptide substrate became immobilized on the Flashplate™ and the incorporation of ^33P-γ-ATP was measured by reading the plate on a scintillation counter. Inhibition of the enzymatic activity of CDK1 was measured by observing a reduced amount of ^33P-γ-ATP incorporated into the immobilized peptide.
The CDK1 kinase used was isolated from insect cells expressing both the human CDK1 catalytic subunit and its positive regulatory subunit cyclin B (New England Biolabs, Beverly, Mass., Cat. # 6020).
(§3) An IC50 listed as >0.1, >1, >10 or >100 means no observed 50% inhibition at the indicated test concentration. […] ND means the compound was not tested in the assay specified.

CDK2:Cyclin A = molecular target: T2, CDK2:Cyclin A (Homo sapiens, UniProt P24941); assay: CDK2 Screening Assay; assay type: biochemical; conditions: 10 μM ATP, biotinylated histone-H1 peptide substrate, 33P-γ-ATP FlashPlate; read-out: Kinase IC50 CDK2
T2 construct: purchased Upstate Biotech, Lake Placid, N.Y
Method: as §1
as §2, with “CDK2:Cyclin A” for “CDK1:Cyclin-B”, “CDK2” for “CDK1”
The CDK2 kinase used was complexed with cyclin A and is commercially available (Upstate Biotech, Lake Placid, N.Y.).
as §3

[1] = tested on: HeLa cervical adenocarcinoma; assay: Inhibition of cell proliferation (14C-thymidine incorporation), HeLa; assay type: cell-based
Method: (§4) The ability of a test compound to inhibit the proliferation of cell growth was determined by measuring incorporation of ^14C-labelled thymidine into newly synthesized DNA within the cells. This method was used on American Type Culture Collection (ATCC, Virginia) cell lines derived from carcinomas originating from several tissues such as HeLa cervical adenocarcinoma (ATCC Cat. #CCL-2), A375 malignant melanoma (ATCC Cat. #CRL-1619) and HCT-116 colon carcinoma (ATCC Cat. #CCL-247).
(§5) The carcinoma cells were trypsinized and counted. The cells (3000-8000 count) were added to each well of a 96-well CytoStar tissue culture treated scintillating microplate (Amersham #RPNQ0160) in complete medium (100 μL) and the plate was incubated in complete medium for 24 hrs at 37° C. in an […] containing 5% CO2.
Test compound (1 μL) in 100% DMSO was added to the plate test-wells with DMSO only added to control-wells. The plate is incubated in complete medium for a second 24 hr period at 37° C. in an atmosphere containing 5% CO2.
An aliquot of a solution of Methyl ^14C-thymidine (56 mCi/mmol) (NEN #NEC568 or Amersham #CFA532) in complete medium (20 uL to provide […]) was also added to each well and the plate was incubated for a third 24 hr period at 37° C. in an atmosphere containing 5% CO2.
The plate contents were discarded and the plate was washed twice with PBS (200 μL), then PBS (200 μL) was added to each well. The plate was sealed and the degree of methyl ^14C-thymidine incorporation is quantified on a Packard Top Count.
An IC50 value shown as >10 or >100 means that 50% inhibition was not observed at the highest concentration.

VEGF-R2 kinase domain = VEGF-R2 kinase domain (Rattus norvegicus, UniProt O08775); assay: VEGF-R2 Screening Assay; assay type: biochemical; conditions: 10 μM ATP, biotinylated PLC1 peptide substrate, 33P-γ-ATP FlashPlate; read-out: Kinase IC50 VEGFR
Method: as §1, with “biotinylated” for “biotinylated histone-H1”, “0.8” for “0.2”
The soluble rat tyrosine kinase containing an N-terminal 6×HIS tag was diluted in 50 mM Tris.HCl pH=8.0, 0.1% BSA at a concentration of 5 ng per μL and 30 μL (150 ng enzyme per test well) was added to each well to initiate the reaction. The reaction was incubated for one hour at 30° C. At the end of the one hour incubation, the reaction was terminated by aspirating the reaction mixture from the plate and washing the wells twice with PBS containing 100 mM EDTA. The PLC1 biotinylated peptide substrate became immobilized on the Flashplate™ and the incorporation of ^33P-γ-ATP was measured by reading the plate on a scintillation counter. Inhibition of the enzymatic activity of the VEGF-R was measured by observing a reduced amount of ^33P-γ-ATP incorporated into the immobilized peptide.
The VEGF-R kinase assay was carried out using the CDK kinase assay procedure except that the enzyme was replaced with the VEGF-R2 fusion protein containing a polyhistidine tag at the N-terminus followed by amino acids 786-1343 of the rat VEGF-R2 kinase domain (GenBank Accession #U93306).
as §3

HCT-116 colon carcinoma = assay: Inhibition of cell proliferation (14C-thymidine incorporation), HCT116; assay type: cell-based; conditions: Homo sapiens, HCT116, 14C-thymidine incorporation
Method: as §4, §5
(§6) Test compound (1 μL) in 100% DMSO was added to the plate test-wells with DMSO only added to control-wells. The plate is incubated in complete medium for a second 24 hr period at 37° C. in an atmosphere containing 5% CO2. […]
(§7) The plate contents were discarded and the plate was washed twice with PBS (200 μL), then PBS (200 μL) was added to each well. The plate was sealed and the degree of methyl ^14C-thymidine incorporation is quantified on a Packard Top Count. […]

A375 malignant melanoma = assay: Inhibition of cell proliferation (14C-thymidine incorporation), A375; assay type: cell-based; conditions: Homo sapiens, A-375; A375, 14C-thymidine incorporation
Method: as §4, §5, §6, §7

T1 sequence (P06493 whole entry): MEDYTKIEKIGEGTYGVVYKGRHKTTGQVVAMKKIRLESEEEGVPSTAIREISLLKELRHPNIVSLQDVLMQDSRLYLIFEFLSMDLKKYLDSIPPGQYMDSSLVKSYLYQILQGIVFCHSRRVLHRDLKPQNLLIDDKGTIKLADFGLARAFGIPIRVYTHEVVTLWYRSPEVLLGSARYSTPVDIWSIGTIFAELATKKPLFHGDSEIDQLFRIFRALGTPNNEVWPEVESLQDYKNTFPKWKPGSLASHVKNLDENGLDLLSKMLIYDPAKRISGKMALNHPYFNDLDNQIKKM
T1 sequence (P14635 whole entry partner): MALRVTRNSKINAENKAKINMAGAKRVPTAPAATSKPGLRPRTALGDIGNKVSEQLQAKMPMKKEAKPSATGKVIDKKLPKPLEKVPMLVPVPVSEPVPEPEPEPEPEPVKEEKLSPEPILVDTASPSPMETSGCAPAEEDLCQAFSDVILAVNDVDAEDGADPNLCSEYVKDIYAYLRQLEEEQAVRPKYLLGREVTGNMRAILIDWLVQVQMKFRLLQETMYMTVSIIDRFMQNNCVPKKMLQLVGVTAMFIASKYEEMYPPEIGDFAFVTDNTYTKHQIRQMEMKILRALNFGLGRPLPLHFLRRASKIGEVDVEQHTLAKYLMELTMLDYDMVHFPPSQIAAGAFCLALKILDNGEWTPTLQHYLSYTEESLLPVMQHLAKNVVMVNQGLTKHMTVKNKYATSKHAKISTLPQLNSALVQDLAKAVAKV
VEGF-R2 kinase domain, sequence (O08775 786-1343): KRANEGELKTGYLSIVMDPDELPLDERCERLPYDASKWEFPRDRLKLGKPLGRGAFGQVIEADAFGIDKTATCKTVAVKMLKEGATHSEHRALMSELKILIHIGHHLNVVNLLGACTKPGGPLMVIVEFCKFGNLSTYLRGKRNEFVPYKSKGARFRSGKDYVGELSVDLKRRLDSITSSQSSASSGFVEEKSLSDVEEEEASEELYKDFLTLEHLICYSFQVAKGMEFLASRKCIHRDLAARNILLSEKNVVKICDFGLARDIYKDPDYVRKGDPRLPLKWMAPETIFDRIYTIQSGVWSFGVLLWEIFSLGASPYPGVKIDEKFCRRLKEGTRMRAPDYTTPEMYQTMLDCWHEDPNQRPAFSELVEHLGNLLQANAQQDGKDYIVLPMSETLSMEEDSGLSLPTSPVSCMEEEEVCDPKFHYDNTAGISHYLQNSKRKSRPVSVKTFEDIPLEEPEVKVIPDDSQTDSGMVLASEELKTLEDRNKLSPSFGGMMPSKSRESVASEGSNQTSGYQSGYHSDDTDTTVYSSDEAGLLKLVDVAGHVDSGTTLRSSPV

In the case of “1-(2,6-difluoro-phenyl)-3-(2-phenylamino-benzothiazol-7-yl)-urea [Cpd 1]”, the IC50 (CDK1:Cyclin-B) is reported as > 100 µM, the IC50 (CDK2:Cyclin A) is reported as > 100 µM and the IC50 [1] is reported as > 10 µM. The IC50 (VEGF-R2 kinase domain) was ~100 µM.

For O=C(Nc1ccc2nc(Nc3ccccc3)sc2c1)Nc1c(F)cccc1F [Cpd 2, 1-(2,6-difluoro-phenyl)-3-(2-phenylamino-benzothiazol-6-yl)-urea], the IC50 (CDK1:Cyclin-B) was > 100 µM, the IC50 (CDK2:Cyclin A) was > 100 µM and the IC50 ([1]; Homo sapiens) was > 100 µM. The IC50 (VEGF-R2 kinase domain) was > 100 µM.

With O=C(Nc1ccccc1)Nc1cccc2nc(Nc3ccccc3)sc12 [Cpd 3, 1-phenyl-3-(2-phenylamino-benzothiazol-7-yl)-urea] the IC50 (CDK1:Cyclin-B) was > 100 µM, the IC50 (CDK2:Cyclin A) was > 100 µM and the IC50 ([1]; Homo sapiens) was > 10 µM. For the same compound, the IC50 (VEGF-R2 kinase domain) was > 100 µM.

For O=C(Nc1ccc(Cl)c(Cl)c1)Nc1cccc2nc(Nc3ccccc3)sc12 [Cpd 4, 1-(3,4-dichloro-phenyl)-3-(2-phenylamino-benzothiazol-7-yl)-urea], the IC50 (CDK1:Cyclin-B) was > 100 µM, the IC50 (CDK2:Cyclin A) was > 100 µM and the IC50 ([1]; Homo sapiens) was > 10 µM. For the same compound, the IC50 (VEGF-R2 kinase domain) was > 100 µM.

With O=C(Nc1ccccc1)Nc1cccc2sc(Nc3ccccc3)nc12 [Cpd 5, 1-phenyl-3-(2-phenylamino-benzothiazol-4-yl)-urea] the IC50 (CDK1:Cyclin-B) was > 100 µM, the IC50 (CDK2:Cyclin A) was > 100 µM and the IC50 ([1]; Homo sapiens) was > 10 µM. The IC50 (VEGF-R2 kinase domain) was > 100 µM.

O=C(Nc1c(F)cccc1F)Nc1cccc2sc(Nc3ccccc3)nc12 [Cpd 6, 1-(2,6-difluoro-phenyl)-3-(2-phenylamino-benzothiazol-4-yl)-urea] was tested, and the IC50 (CDK1:Cyclin-B) was > 100 µM, the IC50 (CDK2:Cyclin A) was 5.76 µM and the IC50 ([1]; Homo sapiens) was 72.7 µM. The IC50 (VEGF-R2 kinase domain) was > 100 µM.

In the case of Cc1ccc(F)c(C(=O)Nc2cccc3sc(Nc4ccccc4)nc23)c1F [Cpd 48, 2,6-difluoro-3-methyl-N-(2-phenylamino-benzothiazol-4-yl)-benzamide], the IC50 (HCT-116 colon carcinoma) is reported as 5.04 µM, the IC50 (CDK1:Cyclin-B) is reported as 1.55 µM and the IC50 (CDK2:Cyclin A) is reported as 0.156 µM. It also gave an IC50 ([1]; Homo sapiens) of 20.6 µM, an IC50 (VEGF-R2 kinase domain) of 4.58 µM and an IC50 (A375 malignant melanoma) of 10.4 µM.

In the case of Cc1ccc(F)c(C(=O)N(C)c2cccc3sc(Nc4ccccc4)nc23)c1F [Cpd 62, 2,6-difluoro-3,N-dimethyl-N-(2-phenylamino-benzothiazol-4-yl)-benzamide], the IC50 (CDK1:Cyclin-B) is reported as > 100 µM, the IC50 (CDK2:Cyclin A) is reported as > 100 µM and the IC50 (VEGF-R2 kinase domain) is reported as > 100 µM.
